In US9540323B2 (BRISTOL-MYERS SQUIBB COMPANY, priority 2012, dated 2017):

Columns and labels:
[1] = target: cloned human P2Y1 receptors (Homo sapiens (Human), UniProt P47900); assay: Binding Assay B - Scintillation Proximity Assay (SPA) for P2Y1 binding, [33P] 2MeS-ADP; details: SPA, 0.3 nM [33P] 2MeS-ADP, Cheng-Prusoff; read-out: P2Y1 Ki (nM) using binding assay B
Protocol: Binding Assay B—Scintillation Proximity Assay (SPA) for P2Y1 Binding
A SPA membrane binding assay was used to identify inhibitors of [^33P] […] Reactions were allowed to proceed to completion at room temperature for 1 hour followed by centrifugation of the plate for 5 min. About 40 μL of the aqueous solution was aspirated. Plates were sealed and the [^33P]

[2] = test system: human platelet rich plasma (PRP); assay: ADP induced platelet aggregation assay; details: Homo sapiens, Platelet, 5 min, read-out: PA IC50 (μM) @ 10 μM ADP, human PRP, 10 μM ADP, AUC at 5 minute

Chain of cloned human P2Y1 receptors (P47900 whole entry): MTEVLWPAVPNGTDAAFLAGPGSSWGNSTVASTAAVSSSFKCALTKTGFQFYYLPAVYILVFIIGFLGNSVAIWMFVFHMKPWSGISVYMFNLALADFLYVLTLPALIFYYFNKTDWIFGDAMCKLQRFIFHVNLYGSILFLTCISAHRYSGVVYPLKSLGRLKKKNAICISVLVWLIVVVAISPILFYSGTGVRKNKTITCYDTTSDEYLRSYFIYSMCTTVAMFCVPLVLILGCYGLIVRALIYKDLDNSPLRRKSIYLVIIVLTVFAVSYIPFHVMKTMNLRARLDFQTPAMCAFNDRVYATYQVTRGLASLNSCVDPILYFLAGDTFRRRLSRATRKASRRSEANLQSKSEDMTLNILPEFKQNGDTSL

Row | Compound | Ki [1] | IC50 [2]
1 | CC1(C)CN(c2ccccc2NC(=O)Nc2nc3ccc(F)nc3s2)c2c(O)cc(F)c(-c3ccc(F)cc3)c21 [Example 233, 1-(2-(5-Fluoro-4-(4-fluorophenyl)-7-hydroxy-3,3-dimethylindolin-1-yl)phenyl)-3-(5-fluorothiazolo[5,4-b]pyridin-2-yl)urea] | 9.4 nM | 0.31 µM
2 | CC1(C)CN(c2ccccc2NC(=O)Nc2ccc(OC(F)(F)F)cc2)c2c(O)cc(F)c(-c3ccc(Cl)c(F)c3)c21 [Example 234, 1-(2-(4-(4-Chloro-3-fluorophenyl)-5-fluoro-7-hydroxy-3,3-dimethylindolin-1-yl)phenyl)-3-(4-(trifluoromethoxy)phenyl)urea] | 40.8 nM | 0.29 µM
3 | CC1(C)CN(c2ccccc2NC(=O)Nc2ccc(OC(F)(F)F)cc2)c2c(O)cc(F)c(-c3cccc(Cl)c3)c21 [Example 235, 1-(2-(4-(3-Chlorophenyl)-5-fluoro-7-hydroxy-3,3-dimethylindolin-1-yl)phenyl)-3-(4-(trifluoromethoxy)phenyl)urea] | 19.5 nM | 0.23 µM
4 | CC1(C)CN(c2ccccc2NC(=O)Nc2ccc(OC(F)(F)F)cc2)c2c(O)cc(F)c(-c3ccc(Cl)cc3F)c21 [Example 236, 1-(2-(4-(4-Chloro-2-fluorophenyl)-5-fluoro-7-hydroxy-3,3-dimethylindolin-1-yl)phenyl)-3-(4-(trifluoromethoxy)phenyl)urea] | 17 nM | 0.23 µM
5 | CC1(C)CN(c2ccccc2NC(=O)Nc2ccc(OC(F)(F)F)cc2)c2c(O)cc(F)c(-c3ccc(F)c(Cl)c3)c21 [Example 237, 1-(2-(4-(3-Chloro-4-fluorophenyl)-5-fluoro-7-hydroxy-3,3-dimethylindolin-1-yl)phenyl)-3-(4-(trifluoromethoxy)phenyl)urea] | 21.5 nM | 0.48 µM
6 | CC(C)CN1CCC(c2ccc(NC(=O)Nc3ccccc3N3CC(C)(C)c4c(-c5ccc(Cl)cc5)c(F)cc(O)c43)cc2)CC1 [Example 238, 1-(2-(4-(4-Chlorophenyl)-5-fluoro-7-hydroxy-3,3-dimethylindolin-1-yl)phenyl)-3-(4-(1-isobutylpiperidin-4-yl)phenyl)urea] | 16.3 nM | 0.4 µM
7 | CC1(C)CN(c2ccccc2NC(=O)Nc2csc(Cl)n2)c2c(O)cc(F)c(-c3ccc(C(F)(F)F)cc3)c21 [Example 239, 1-(2-Chlorothiazol-4-yl)-3-(2-(5-fluoro-7-hydroxy-3,3-dimethyl-4-(4-(trifluoromethyl)phenyl)indolin-1-yl)phenyl)urea] | 11.3 nM | 0.05 µM
8 | CC(C)(C)CN1CCC(c2ccc(NC(=O)Nc3ccccc3N3CC(C)(C)c4c(-c5ccc(Cl)cc5)c(F)cc(O)c43)cc2)CC1 [Example 240, 1-(2-(4-(4-Chlorophenyl)-5-fluoro-7-hydroxy-3,3-dimethylindolin-1-yl)phenyl)-3-(4-(1-neopentylpiperidin-4-yl)phenyl)urea] | 13.7 nM | 0.31 µM
9 | CC(C)(C)c1ccc(-c2c(F)cc(O)c3c2C(C)(C)CN3c2ccccc2NC(=O)Nc2ccc(OC(F)(F)F)cc2)cc1 [Example 241, 1-(2-(4-(4-(tert-Butyl)phenyl)-5-fluoro-7-hydroxy-3,3-dimethylindolin-1-yl)phenyl)-3-(4-(trifluoromethoxy)phenyl)urea] | 33.3 nM | 0.15 µM
10 | CC(C)(C)c1ccc(-c2c(F)cc(O)c3c2C(C)(C)CN3c2ccccc2NC(=O)Nc2csc(Cl)n2)cc1 [Example 242, 1-(2-(4-(4-(tert-Butyl)phenyl)-5-fluoro-7-hydroxy-3,3-dimethylindolin-1-yl)phenyl)-3-(2-chlorothiazol-4-yl)urea] | 12.6 nM | 0.06 µM
11 | CC(C)(C)c1ccc(-c2c(F)cc(O)c3c2C(C)(C)CN3c2ccccc2NC(=O)Nc2csc(C(F)(F)F)n2)cc1 [Example 243, 1-(2-(4-(4-(tert-Butyl)phenyl)-5-fluoro-7-hydroxy-3,3-dimethylindolin-1-yl)phenyl)-3-(2-(trifluoromethyl)thiazol-4-yl)urea] | 20.3 nM | 0.1 µM
12 | Cc1cc(-c2c(F)cc(O)c3c2C(C)(C)CN3c2ccccc2NC(=O)Nc2ccc(OC(F)(F)F)cc2)ccc1F [Example 245, 1-(2-(5-Fluoro-4-(4-fluoro-3-methylphenyl)-7-hydroxy-3,3-dimethylindolin-1-yl)phenyl)-3-(4-(trifluoromethoxy)phenyl)urea] | 11.4 nM | 0.19 µM
13 | CC(C)(C)CN1CCC(NC(=O)Nc2ccccc2N2CC(C)(C)c3c(-c4ccc(C(F)(F)F)cc4)c(F)cc(O)c32)CC1 [Example 246, 1-(2-(5-Fluoro-7-hydroxy-3,3-dimethyl-4-(4-(trifluoromethyl)phenyl)indolin-1-yl)phenyl)-3-(1-neopentylpiperidin-4-yl)urea] | 14.2 nM | 0.25 µM
14 | CC1(C)CN(c2ccccc2NC(=O)Nc2ccc(OC(F)(F)F)cc2)c2c(O)cc(F)c(-c3cccc(C#N)c3)c21 [Example 247, 1-(2-(4-(3-Cyanophenyl)-5-fluoro-7-hydroxy-3,3-dimethylindolin-1-yl)phenyl)-3-(4-(trifluoromethoxy)phenyl)urea] | 10 nM | 0.87 µM
15 | CC1(C)CN(c2ccccc2NC(=O)Nc2ccc(OC(F)(F)F)cc2)c2c(O)cc(F)c(-c3ccc(C#N)cc3)c21 [Example 248, 1-(2-(4-(4-Cyanophenyl)-5-fluoro-7-hydroxy-3,3-dimethylindolin-1-yl)phenyl)-3-(4-(trifluoromethoxy)phenyl)urea] | 7.4 nM | 0.43 µM
16 | CN(C)Cc1cccc(-c2c(F)cc(O)c3c2C(C)(C)CN3c2ccccc2NC(=O)Nc2ccc(OC(F)(F)F)cc2)c1 [Example 249, 1-(2-(4-(3-((Dimethylamino)methyl)phenyl)-5-fluoro-7-hydroxy-3,3-dimethylindolin-1-yl)phenyl)-3-(4-(trifluoromethoxy)phenyl)urea] | 12.2 nM | 0.7 µM
17 | C=C(C)c1ccc(-c2c(F)cc(O)c3c2C(C)(C)CN3c2ccccc2NC(=O)Nc2ccc(OC(F)(F)F)cc2)cc1 [Example 250, 1-(2-(5-Fluoro-7-hydroxy-3,3-dimethyl-4-(4-(prop-1-en-2-yl)phenyl)indolin-1-yl)phenyl)-3-(4-(trifluoromethoxy)phenyl)urea] | 29.5 nM | 0.22 µM
18 | CC1(C)CN(c2ccccc2NC(=O)Nc2ccc(OC(F)(F)F)cc2)c2c(O)cc(F)c(-c3cccc(CN4CCOCC4)c3)c21 [Example 251, 1-(2-(5-Fluoro-7-hydroxy-3,3-dimethyl-4-(3-(morpholinomethyl)phenyl)indolin-1-yl)phenyl)-3-(4-(trifluoromethoxy)phenyl)urea] | 16.9 nM | 0.93 µM
19 | CC1(C)CN(c2ccccc2NC(=O)Nc2ccc(OC(F)(F)F)cc2)c2c(O)cc(F)c(C3CC3)c21 [Example 252, 1-(2-(4-Cyclopropyl-5-fluoro-7-hydroxy-3,3-dimethylindolin-1-yl)phenyl)-3-(4-(trifluoromethoxy)phenyl)urea] | 18.3 nM | 0.42 µM
20 | CC(C)n1nc(-c2c(F)cc(O)c3c2C(C)(C)CN3c2ccccc2NC(=O)Nc2nc3ccc(F)cc3s2)cc1C(F)(F)F [Example 253, 1-(2-(5-Fluoro-7-hydroxy-4-(1-isopropyl-5-(trifluoromethyl)-1H-pyrazol-3-yl)-3,3-dimethylindolin-1-yl)phenyl)-3-(6-fluorobenzo[d]thiazol-2-yl)urea] | 33.4 nM | 0.12 µM
21 | CC(C)(C)c1nc(-c2c(F)cc(O)c3c2C(C)(C)CN3c2ccccc2NC(=O)Nc2nc3ccc(F)cc3s2)co1 [Example 254, 1-(2-(4-(2-tert-Butyloxazol-4-yl)-5-fluoro-7-hydroxy-3,3-dimethylindolin-1-yl)phenyl)-3-(6-fluorobenzo[d]thiazol-2-yl)urea] | 13.7 nM | 0.87 µM
22 | CC(C)c1noc(-c2c(F)cc(O)c3c2C(C)(C)CN3c2ccccc2NC(=O)Nc2ccc(OC(F)(F)F)cc2)n1 [Example 256, 1-(2-(5-Fluoro-7-hydroxy-4-(3-isopropyl-1,2,4-oxadiazol-5-yl)-3,3-dimethylindolin-1-yl)phenyl)-3-(4-(trifluoromethoxy)phenyl)urea] | 6.6 nM | 0.76 µM
23 | CC1(C)CN(c2ccccc2NC(=O)Nc2nc3ccc(Cl)nc3s2)c2c(O)cc(F)c(-c3noc(C(F)(F)F)n3)c21 [Example 257, 1-(5-Chlorothiazolo[5,4-b]pyridin-2-yl)-3-(2-(5-fluoro-7-hydroxy-3,3-dimethyl-4-(5-(trifluoromethyl)-1,2,4-oxadiazol-3-yl)indolin-1-yl)phenyl)urea] | 86.2 nM | 0.29 µM
24 | CC(C)c1nc(-c2c(F)cc(O)c3c2C(C)(C)CN3c2ccccc2NC(=O)Nc2ccc(OC(F)(F)F)cc2)co1 [Example 258, 1-(2-(5-Fluoro-7-hydroxy-4-(2-isopropyloxazol-4-yl)-3,3-dimethylindolin-1-yl)phenyl)-3-(4-(trifluoromethoxy)phenyl)urea] | 7.5 nM | 0.52 µM
25 | CC(C)(C)c1nc(-c2c(F)cc(O)c3c2C(C)(C)CN3c2ccccc2NC(=O)Nc2ccc(OC(F)(F)F)cc2)co1 [Example 259, 1-(2-(4-(2-(tert-Butyl)oxazol-4-yl)-5-fluoro-7-hydroxy-3,3-dimethylindolin-1-yl)phenyl)-3-(4-(trifluoromethoxy)phenyl)urea] | 46.3 nM | 0.58 µM
26 | CC(C)Cc1nc(-c2c(F)cc(O)c3c2C(C)(C)CN3c2ccccc2NC(=O)Nc2ccc(OC(F)(F)F)cc2)co1 [Example 260, 1-(2-(5-Fluoro-7-hydroxy-4-(2-isobutyloxazol-4-yl)-3,3-dimethylindolin-1-yl)phenyl)-3-(4-(trifluoromethoxy)phenyl)urea] | 18.8 nM | 0.4 µM
